{"source": "paper PMC12715805", "about": "“Screening apelin analogues and a small molecule agonist as effective cardiovascular therapeutics against reperfusion injury” (RSC Medicinal Chemistry, 2025)", "origin": "cited, not measured here", "settings": "G-protein-biased agonists; cited from earlier work", "source_text": "The therapeutic potential of biased and unbiased agonists for the apelinR remains an area of active investigation, particularly regarding their effects on BP regulation. […] In contrast, the two non peptidic apelinR agonists, BMS-98622 ..."}
{"compound": "CCC(CC)n1c(Cc2cccs2)nc2cc(C(=O)N[C@H](CC(=O)O)CC(C)C)ccc21", "note": "[CMF-019]", "values": [{"measurement": "vasodilation (in words)", "result": "demonstrated vasodilation"}]}
